Experimental data reported in ChEMBL document CHEMBL3885881, “DrugMatrix”.

Species on record: Rattus norvegicus
Test: DrugMatrix - Regimen: Daily Repeat
Assay type: toxicity, organism-based, Sprague-Dawley
Set-up: regimen Daily Repeat, gender Male, age 6-8 weeks
Details: in vivo, po, route oral GAVAGE, vehicle 100 % WATER; for URIC ACID / ALANINE AMINOTRANSFERASE / ALBUMIN / ALKALINE PHOSPHATASE / ASPARTATE AMINOTRANSFERASE / BLOOD UREA NITROGEN / CARBON DIOXIDE / CHLORIDE / CHOLESTEROL / CREATINE PHOSPHOKINASE / CREATININE / GLUCOSE / LACTATE DEHYDROGENASE / LIPASE / PHOSPHORUS / POTASSIUM / SODIUM / TOTAL BILIRUBIN / TOTAL PROTEIN: tissue Plasma; for ABSOLUTE BASOPHIL / ABSOLUTE EOSINOPHIL / ABSOLUTE LYMPHOCYTE / ABSOLUTE MONOCYTE / ABSOLUTE SEGMENTED NEUTROPHIL / BASOPHIL / EOSINOPHIL / ERYTHROCYTE COUNT / HEMATOCRIT / HEMOGLOBIN / LEUKOCYTE COUNT / LYMPHOCYTE / MEAN CORPUSCULAR HEMOGLOBIN / MEAN CORPUSCULAR HEMOGLOBIN CONCENTRATION / MONOCYTE / NEUTROPHIL / NUCLEATED RED BLOOD CELLS / PLATELET COUNT: tissue Blood
[1] = 50 mg/kg, 120 h, dose level Low, time 5 day
[2] = 1750 mg/kg, 72 h, dose level High, time 3 day
[3] = 1750 mg/kg, 120 h, dose level High, time 5 day

## C[C@H](CS)C(=O)N1CCC[C@H]1C(=O)O [CAPTOPRIL]
50 mg/kg, 72 h, dose level Low, time 3 day
  URIC ACID: 1.37 mg/dL
[1]
  ABSOLUTE BASOPHIL: 0 CELLS/uL
  ABSOLUTE EOSINOPHIL: 130 CELLS/uL
  ABSOLUTE LYMPHOCYTE: 12459.67 CELLS/uL
  ABSOLUTE MONOCYTE: 96.33 CELLS/uL
  ABSOLUTE SEGMENTED NEUTROPHIL: 1180.67 CELLS/uL
  BASOPHIL: 0%
  EOSINOPHIL: 1%
  ERYTHROCYTE COUNT: 5.51 x10E6/uL
  HEMATOCRIT: 34.87%
  HEMOGLOBIN: 14.1 G/DL
  LEUKOCYTE COUNT: 13.87 x10E3/uL
  LYMPHOCYTE: 90%
  MEAN CORPUSCULAR HEMOGLOBIN: 25.63 pg
  MEAN CORPUSCULAR HEMOGLOBIN CONCENTRATION: 40.43 G/DL
  MONOCYTE: 0.67%
  NEUTROPHIL: 8.33%
  NUCLEATED RED BLOOD CELLS: 0.33 /100WBC
  PLATELET COUNT: 1341.67 x10E3/uL
  ALANINE AMINOTRANSFERASE: 46.33 u/L
  ALBUMIN: 4.37 G/DL
  ALKALINE PHOSPHATASE: 377.67 u/L
  ASPARTATE AMINOTRANSFERASE: 83.33 u/L
  BLOOD UREA NITROGEN: 16.67 mg/dL
  CARBON DIOXIDE: 30.67 mmol/L
  CHLORIDE: 100.33 MEQ/L
  CHOLESTEROL: 79.67 mg/dL
  CREATINE PHOSPHOKINASE: 326.33 u/L
  CREATININE: 0.2 mg/dL
  GLUCOSE: 140.67 mg/dL
  LACTATE DEHYDROGENASE: 506 u/L
  LIPASE: 12.67 u/L
  PHOSPHORUS: 10.43 mg/dL
  POTASSIUM: 6.71 MEQ/L
  SODIUM: 141.93 MEQ/L
  TOTAL BILIRUBIN: 0.2 mg/dL
  TOTAL PROTEIN: 6.37 G/DL
  URIC ACID: 1.4 mg/dL
[2]
  ABSOLUTE BASOPHIL: 0 CELLS/uL
  ABSOLUTE EOSINOPHIL: 0 CELLS/uL
  ABSOLUTE LYMPHOCYTE: 14323.33 CELLS/uL
  ABSOLUTE MONOCYTE: 220.67 CELLS/uL
  ABSOLUTE SEGMENTED NEUTROPHIL: 1556 CELLS/uL
  BASOPHIL: 0%
  EOSINOPHIL: 0%
  ERYTHROCYTE COUNT: 5.51 x10E6/uL
  HEMATOCRIT: 34.3%
  HEMOGLOBIN: 13.6 G/DL
  LEUKOCYTE COUNT: 16.1 x10E3/uL
  LYMPHOCYTE: 89%
  MEAN CORPUSCULAR HEMOGLOBIN: 24.73 pg
  MEAN CORPUSCULAR HEMOGLOBIN CONCENTRATION: 39.67 G/DL
  MONOCYTE: 1.33%
  NEUTROPHIL: 9.67%
  NUCLEATED RED BLOOD CELLS: 0.67 /100WBC
  PLATELET COUNT: 1393 x10E3/uL
  ALANINE AMINOTRANSFERASE: 54.67 u/L
  ALBUMIN: 4.07 G/DL
  ALKALINE PHOSPHATASE: 365.33 u/L
  ASPARTATE AMINOTRANSFERASE: 87 u/L
  BLOOD UREA NITROGEN: 25.67 mg/dL
  CARBON DIOXIDE: 24 mmol/L
  CHLORIDE: 100.67 MEQ/L
  CHOLESTEROL: 71.67 mg/dL
  CREATINE PHOSPHOKINASE: 349.33 u/L
  CREATININE: 0.16 mg/dL
  GLUCOSE: 152.33 mg/dL
  LACTATE DEHYDROGENASE: 356 u/L
  LIPASE: 10.33 u/L
  PHOSPHORUS: 11.53 mg/dL
  SODIUM: 139.9 MEQ/L
  TOTAL BILIRUBIN: 0.2 mg/dL
  TOTAL PROTEIN: 5.73 G/DL
  URIC ACID: 1.27 mg/dL
[3]
  ABSOLUTE BASOPHIL: 0 CELLS/uL
  ABSOLUTE EOSINOPHIL: 0 CELLS/uL
  ABSOLUTE LYMPHOCYTE: 12668 CELLS/uL
  ABSOLUTE MONOCYTE: 119.33 CELLS/uL
  ABSOLUTE SEGMENTED NEUTROPHIL: 946 CELLS/uL
  BASOPHIL: 0%
  EOSINOPHIL: 0%
  ERYTHROCYTE COUNT: 5.54 x10E6/uL
  HEMATOCRIT: 34.7%
  HEMOGLOBIN: 13.83 G/DL
  LEUKOCYTE COUNT: 13.73 x10E3/uL
  LYMPHOCYTE: 92.33%
  MEAN CORPUSCULAR HEMOGLOBIN: 25.03 pg
  MEAN CORPUSCULAR HEMOGLOBIN CONCENTRATION: 39.9 G/DL
  MONOCYTE: 1%
  NEUTROPHIL: 6.67%
  NUCLEATED RED BLOOD CELLS: 0 /100WBC
  PLATELET COUNT: 1353.67 x10E3/uL
  ALANINE AMINOTRANSFERASE: 53.67 u/L
  ALBUMIN: 4.13 G/DL
  ALKALINE PHOSPHATASE: 415 u/L
  ASPARTATE AMINOTRANSFERASE: 102 u/L
  BLOOD UREA NITROGEN: 39.33 mg/dL
  CARBON DIOXIDE: 24.33 mmol/L
  CHLORIDE: 102.33 MEQ/L
  CHOLESTEROL: 70.33 mg/dL
  CREATINE PHOSPHOKINASE: 594.67 u/L
  CREATININE: 0.33 mg/dL
  GLUCOSE: 145.33 mg/dL
  LACTATE DEHYDROGENASE: 1114.33 u/L
  LIPASE: 11 u/L
  PHOSPHORUS: 10.47 mg/dL
  POTASSIUM: 6.84 MEQ/L
  SODIUM: 141.27 MEQ/L
  TOTAL BILIRUBIN: 0.23 mg/dL
  TOTAL PROTEIN: 6.03 G/DL
  URIC ACID: 1.87 mg/dL
